Measured values from patent US8148361B2, “Kinase inhibitors” (Bristol-Myers Squibb Company, priority 2006, dated 2012).
pIC50: −log10 of the molar value.

These compounds were tested against VEGFR-2 (Homo sapiens, UniProt P35968) (assay: VEGFR-2 kinase assay). Details: poly glu/tyr substrate, 33P-ATP; read-out: VEGFR2 IC50.
Type: biochemical
Procedure: 1. VEGFR-2 and FGFR-1 Kinase Assays:
Incubation mixtures employed for VEGFR-2 or FGFR-1 assay contain the synthetic substrate poly glu/tyr, (4:1), ATP, ATP-γ-^33P and buffer containing Mn^++ and/or Mg^++, DTT, BSA, and Tris buffer. The reaction is initiated by addition of enzyme and after 60 minutes at room temperature is terminated by the addition of 30% TCA to a final concentration of 15% TCA. Inhibitors are brought to 10 mM in 100% DMSO. Assays are prepared in a 96 well format in quadruplicate. Compounds are diluted 1:500 in 100% DMSO and then 1:10 in water for a final DMSO concentration of 10%. 10 μL are added to rows B-H in a 96 well format of 10% DMSO. 20 μl of compound is added to row A at a concentration 5 fold higher than running conditions. Ten μL are transferred to each row followed by six serial dilutions with mixing, and at row F 10 μL are discarded. Row G is a control with no compound and row H is no compound and no enzyme control. Enzyme and substrate are delivered using a Tomtec Quadra station.
Plates are covered with sticky plate tops, incubated at 27° C. for 60 minutes, and then acid precipitated with TCA for 20 minutes on ice. The precipitate is transferred to UniFilter-96, GF/C microplates using either a Tomtec or Packard FilterMate harvester. Activity is determined by quantitating the incorporated radioactivity using a Packard TopCount Microplate Scintillation Counter following the addition of Microscint-20 cocktail into each dried well of the UniFilter microplates.

VEGFR-2, sequence (P35968 20-1356): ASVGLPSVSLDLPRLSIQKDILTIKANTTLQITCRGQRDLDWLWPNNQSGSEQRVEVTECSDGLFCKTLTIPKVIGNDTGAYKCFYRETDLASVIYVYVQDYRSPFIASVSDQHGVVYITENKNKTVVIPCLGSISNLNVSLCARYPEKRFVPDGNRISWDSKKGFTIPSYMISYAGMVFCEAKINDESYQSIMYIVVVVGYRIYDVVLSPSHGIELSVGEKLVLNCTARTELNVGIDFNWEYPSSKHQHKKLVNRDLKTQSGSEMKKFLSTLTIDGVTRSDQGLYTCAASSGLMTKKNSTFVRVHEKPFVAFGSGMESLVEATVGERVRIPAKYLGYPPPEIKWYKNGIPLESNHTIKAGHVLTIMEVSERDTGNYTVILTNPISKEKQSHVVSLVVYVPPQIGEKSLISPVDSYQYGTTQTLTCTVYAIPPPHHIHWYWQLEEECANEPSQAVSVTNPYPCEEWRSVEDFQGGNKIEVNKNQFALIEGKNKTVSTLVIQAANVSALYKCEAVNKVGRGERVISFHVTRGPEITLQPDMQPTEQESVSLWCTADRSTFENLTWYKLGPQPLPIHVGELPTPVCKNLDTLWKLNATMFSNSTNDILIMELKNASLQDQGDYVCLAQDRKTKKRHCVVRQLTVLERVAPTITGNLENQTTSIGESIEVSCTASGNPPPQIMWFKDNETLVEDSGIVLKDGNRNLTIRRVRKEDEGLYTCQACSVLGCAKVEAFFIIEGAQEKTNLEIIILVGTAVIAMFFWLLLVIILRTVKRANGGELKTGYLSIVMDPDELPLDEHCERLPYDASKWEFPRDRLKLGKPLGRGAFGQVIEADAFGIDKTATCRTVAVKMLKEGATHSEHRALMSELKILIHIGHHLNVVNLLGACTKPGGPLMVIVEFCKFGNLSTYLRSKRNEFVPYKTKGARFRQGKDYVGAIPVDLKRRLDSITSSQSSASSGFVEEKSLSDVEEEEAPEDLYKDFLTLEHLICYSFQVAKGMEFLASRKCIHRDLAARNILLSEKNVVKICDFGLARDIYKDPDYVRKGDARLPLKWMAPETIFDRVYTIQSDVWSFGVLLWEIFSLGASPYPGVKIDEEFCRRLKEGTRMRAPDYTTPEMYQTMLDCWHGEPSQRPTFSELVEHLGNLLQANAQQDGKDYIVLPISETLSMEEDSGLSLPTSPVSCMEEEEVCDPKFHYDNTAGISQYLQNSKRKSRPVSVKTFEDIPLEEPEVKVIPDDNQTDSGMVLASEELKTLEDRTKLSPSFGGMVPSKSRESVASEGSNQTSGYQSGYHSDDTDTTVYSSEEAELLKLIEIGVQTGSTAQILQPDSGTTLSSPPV

Point of comparison: `O=C(NC1CC1)c1ccc(F)c(CNc2cnc3[nH]c(-c4ccccc4)cc3c2)c1` [Example 3, N-cyclopropyl-4-fluoro-3-((2-phenyl-1H-pyrrolo[2,3-b]pyridin-5-ylamino)methyl)benzamide], pIC50 6.99. Against it:
- O=C(NC1CC1)c1ccc(F)c(NCc2cnc3[nH]c(-c4ccccc4)cc3c2)c1 [Example 1, N-Cyclopropyl-4-fluoro-3-{(2-phenyl-1H-pyrrolo[2,3-b]pyridin-5-yl)methylamino}benzamide] — 0.81 log units higher, 7.80
- O=C(NC1CC1)c1cc(NCc2cnc3[nH]c(-c4ccccc4)cc3c2)c(F)cc1F [Example 2, N-cyclopropyl-2,4-difluoro-5-((2-phenyl-1H-pyrrolo[2,3-b]pyridin-5-yl)methylamino)benzamide] — 0.20 log units higher, 7.19
- O=C(NC1CC1)c1ccc(F)c(NCc2cnc3[nH]c(C4CC4)cc3c2)c1 [Example 4, N-cyclopropyl-3-((2-cyclopropyl-1H-pyrrolo[2,3-b]pyridin-5-yl)methylamino)-4-fluorobenzamide] — within 0.2 log units, 6.84
- O=C(NC1CC1)c1ccc(F)c(NCc2cnc3[nH]c(-c4cccnc4)cc3c2)c1 [Example 5, N-cyclopropyl-4-fluoro-3-((2-(pyridin-3-yl)-1H-pyrrolo[2,3-b]pyridin-5-yl)methylamino)benzamide] — 0.78 log units higher, 7.77

The compounds below were run against T1, IGF-1 receptor tyrosine kinase (Homo sapiens, UniProt P08069) (assay: IGF-receptor tyrosine kinase assay). Details: poly(Glu/Tyr) substrate, 25 μM ATP, baculovirus expressed enzyme; read-out: IGF1R IC50.
T1 construct: host or cells: baculovirus expression system
T1 sequence (P08069 31-1367): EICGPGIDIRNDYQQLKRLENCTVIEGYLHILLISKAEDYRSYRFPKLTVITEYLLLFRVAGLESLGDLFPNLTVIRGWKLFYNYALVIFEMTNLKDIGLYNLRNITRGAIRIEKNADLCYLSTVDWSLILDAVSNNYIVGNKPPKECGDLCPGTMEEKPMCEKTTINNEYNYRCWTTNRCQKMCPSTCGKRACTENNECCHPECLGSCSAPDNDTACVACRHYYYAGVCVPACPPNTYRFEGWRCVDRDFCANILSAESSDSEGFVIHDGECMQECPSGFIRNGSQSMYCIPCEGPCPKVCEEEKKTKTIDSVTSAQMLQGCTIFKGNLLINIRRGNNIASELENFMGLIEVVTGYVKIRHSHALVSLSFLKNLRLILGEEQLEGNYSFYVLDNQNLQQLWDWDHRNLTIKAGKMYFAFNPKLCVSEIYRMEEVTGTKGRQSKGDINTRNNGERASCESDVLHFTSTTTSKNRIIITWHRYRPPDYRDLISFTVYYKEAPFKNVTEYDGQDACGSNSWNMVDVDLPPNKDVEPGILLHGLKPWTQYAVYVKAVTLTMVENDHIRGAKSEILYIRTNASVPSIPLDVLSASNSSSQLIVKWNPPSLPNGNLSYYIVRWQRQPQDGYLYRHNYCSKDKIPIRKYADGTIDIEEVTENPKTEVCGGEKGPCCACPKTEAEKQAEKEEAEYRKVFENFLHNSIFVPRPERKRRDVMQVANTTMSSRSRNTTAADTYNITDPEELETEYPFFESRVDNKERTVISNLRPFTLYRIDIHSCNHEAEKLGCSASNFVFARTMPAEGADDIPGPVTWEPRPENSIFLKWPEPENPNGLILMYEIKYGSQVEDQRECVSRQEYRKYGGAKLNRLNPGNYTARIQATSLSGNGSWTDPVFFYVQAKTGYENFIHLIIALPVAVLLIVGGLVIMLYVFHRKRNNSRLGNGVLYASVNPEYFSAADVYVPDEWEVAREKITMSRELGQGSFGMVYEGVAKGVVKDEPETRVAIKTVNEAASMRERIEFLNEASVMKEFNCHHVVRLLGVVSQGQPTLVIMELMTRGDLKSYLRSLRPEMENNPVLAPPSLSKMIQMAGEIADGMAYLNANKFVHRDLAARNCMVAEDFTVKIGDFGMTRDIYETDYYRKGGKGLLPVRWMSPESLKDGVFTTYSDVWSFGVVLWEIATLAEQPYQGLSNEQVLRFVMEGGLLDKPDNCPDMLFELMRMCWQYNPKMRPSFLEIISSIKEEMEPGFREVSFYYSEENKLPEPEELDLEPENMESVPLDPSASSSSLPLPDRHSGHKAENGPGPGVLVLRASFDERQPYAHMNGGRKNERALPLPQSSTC
Type: biochemical
Procedure: 3. IGF-Receptor Tyrosine Kinase Assay
The IGF-1 receptor tyrosine kinase was assayed using the synthetic polymer poly(Glu/Tyr) (Sigma Chemicals) as a phosphoacceptor substrate. Each reaction mixture consisted of a total volume of 50 ul and contained 125 ng of baculovirus expressed enzyme, 2.5 μg of poly(Glu/Tyr), 25 μM of ATP, and 0.1 μCi of [γ-^33P]ATP. The mixtures also contained 20 mM MOPS, pH 7.0, 5 mM MnCl2, 0.5 mM […], and 0.1 mg/ml bovine serum albumin. The reaction mixtures were incubated at 30° C. for 45 minutes and kinase activity was determined by quantitation of the amount of radioactive phosphate transferred to the poly(Glu/Tyr) substrate. Incorporation was measured by the addition of cold trichloroacetic acid (TCA) precipitation of the proteins which were collected onto GF/C unifilter plates (Packard Instrument Co., Meriden, Conn.) using a Filtermate universal harvester and the filters were quantitated using a TopCount 96-well liquid scintillation counter (Packard Instrument Co., Meriden, Conn.). Compounds were dissolved in dimethyl sulfoxide to a concentration of 10 mM and were evaluated at six concentrations, each in triplicate.

For `O=C(NC1CN(S(=O)(=O)c2ccc(F)cc2)C1)c1cccc(Sc2cnc3[nH]c(-c4ccccc4)cc3c2)c1` [Example 13, N-(1-(4-fluorophenylsulfonyl)azetidin-3-yl)-3-(2-phenyl-1H-pyrrolo[2,3-b]pyridin-5-ylthio)benzamide], the pIC50 was 6.70.
